Results taken from ChEMBL document CHEMBL1201862, “PubChem BioAssay data set” (2004).
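Protocol summary: plate cells (96-well), add compound at 5 concentrations, incubate 48 h, interpolate endpoints linearly. The concentration for 50% growth inhibition is given as GI50.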 Active and inactive are the calls of the source. No stated cut-off is given here; in the data, active = GI50 up to about 1.1 µM and inactive = higher.

Columns and labels:
Experiment in all cases: DTP human tumour cell line panel, 48 h
OVCAR-5 = test system: OVCAR-5
SF-268 = test system: SF-268
OVCAR-3 = test system: OVCAR-3
SK-OV-3 = test system: SK-OV-3
TK-10 = test system: TK-10
MCF7 = test system: MCF7
UO-31 = test system: UO-31
MDA-MB-435 = test system: MDA-MB-435
SK-MEL-5 = test system: SK-MEL-5
SK-MEL-28 = test system: SK-MEL-28
HCT-116 = test system: HCT-116
NCI-H23 = test system: NCI-H23
OVCAR-8 = test system: OVCAR-8
SW-620 = test system: SW-620
SF-295 = test system: SF-295
SK-MEL-2 = test system: SK-MEL-2
NCI-H522 = test system: NCI-H522
Malme-3M = test system: Malme-3M
Hs-578T = test system: Hs-578T
SR = test system: SR

## COc1ccccc1/N=C1\SCCN1C(=S)Nc1ccc(S(=O)(=O)/N=C/N(C)C)cc1
OVCAR-5
  GI50: 87.5 µM (inactive)
SF-268
  GI50: 22.1 µM (inactive)
OVCAR-3
  GI50: 44 µM (inactive)
SK-OV-3
  GI50: > 100 µM (inactive)
TK-10
  GI50: 36 µM (inactive)
MCF7
  GI50: 26.1 µM (inactive)
UO-31
  GI50: 38.5 µM (inactive)
MDA-MB-435
  GI50: 24.9 µM (inactive)
SK-MEL-5
  GI50: 15.9 µM (inactive)
SK-MEL-28
  GI50: 30.1 µM (inactive)
HCT-116
  GI50: 41.7 µM (inactive)
NCI-H23
  GI50: 27.1 µM (inactive)
OVCAR-8
  GI50: 35.2 µM (inactive)
SW-620
  GI50: 44.9 µM (inactive)
SF-295
  GI50: > 100 µM (inactive)

## CC(C1CCCC1=O)C1CCCC1=O (stereo not drawn)
SK-MEL-2
  GI50: > 100 µM (inactive)
OVCAR-5
  GI50: > 100 µM (inactive)
SF-268
  GI50: > 100 µM (inactive)
NCI-H522
  GI50: > 100 µM (inactive)
SK-OV-3
  GI50: > 100 µM (inactive)
TK-10
  GI50: > 100 µM (inactive)
Malme-3M
  GI50: > 100 µM (inactive)
MCF7
  GI50: > 100 µM (inactive)
UO-31
  GI50: > 100 µM (inactive)
SK-MEL-5
  GI50: > 100 µM (inactive)
SK-MEL-28
  GI50: > 100 µM (inactive)
Hs-578T
  GI50: 92 µM (inactive)
HCT-116
  GI50: > 100 µM (inactive)
NCI-H23
  GI50: > 100 µM (inactive)
OVCAR-8
  GI50: > 100 µM (inactive)
SR
  GI50: > 100 µM (inactive)
SW-620
  GI50: > 100 µM (inactive)
SF-295
  GI50: > 100 µM (inactive)

## COc1c2c(cc3c1C(=O)Cc1ccc4c(c1CN(C)CC3)OCO4)OCO2
SK-MEL-2
  GI50: > 100 µM (inactive)
OVCAR-5
  GI50: 29.3 µM (inactive)
SF-268
  GI50: > 100 µM (inactive)
OVCAR-3
  GI50: > 100 µM (inactive)
NCI-H522
  GI50: > 100 µM (inactive)
SK-OV-3
  GI50: > 100 µM (inactive)
TK-10
  GI50: > 100 µM (inactive)
Malme-3M
  GI50: > 100 µM (inactive)
UO-31
  GI50: 12.2 µM (inactive)
SK-MEL-5
  GI50: 40.3 µM (inactive)
SK-MEL-28
  GI50: > 100 µM (inactive)
HCT-116
  GI50: 52.2 µM (inactive)
NCI-H23
  GI50: > 100 µM (inactive)
OVCAR-8
  GI50: > 100 µM (inactive)
SR
  GI50: 43.2 µM (inactive)
SW-620
  GI50: > 100 µM (inactive)
SF-295
  GI50: > 100 µM (inactive)

## O=c1[nH]c2c(c3ccccc13)CCc1ccccc1-2
SK-MEL-2
  GI50: > 100 µM (inactive)
OVCAR-5
  GI50: > 100 µM (inactive)
SF-268
  GI50: > 100 µM (inactive)
OVCAR-3
  GI50: > 100 µM (inactive)
NCI-H522
  GI50: > 100 µM (inactive)
SK-OV-3
  GI50: > 100 µM (inactive)
TK-10
  GI50: > 100 µM (inactive)
Malme-3M
  GI50: > 100 µM (inactive)
UO-31
  GI50: > 100 µM (inactive)
SK-MEL-5
  GI50: > 100 µM (inactive)
SK-MEL-28
  GI50: > 100 µM (inactive)
HCT-116
  GI50: > 100 µM (inactive)
NCI-H23
  GI50: > 100 µM (inactive)
OVCAR-8
  GI50: > 100 µM (inactive)
SR
  GI50: > 100 µM (inactive)
SW-620
  GI50: > 100 µM (inactive)
SF-295
  GI50: > 100 µM (inactive)

## Cc1cc2nc3c(C#N)c(-c4ccccc4)cc(Nc4ccc(Cl)cc4)n3c2cc1C
SK-MEL-2
  GI50: > 100 µM (inactive)
OVCAR-5
  GI50: > 100 µM (inactive)
SF-268
  GI50: 51.6 µM (inactive)
OVCAR-3
  GI50: 6.05 µM (inactive)
NCI-H522
  GI50: 9.57 µM (inactive)
SK-OV-3
  GI50: > 100 µM (inactive)
TK-10
  GI50: > 100 µM (inactive)
Malme-3M
  GI50: > 100 µM (inactive)
MCF7
  GI50: > 100 µM (inactive)
UO-31
  GI50: > 100 µM (inactive)
MDA-MB-435
  GI50: > 100 µM (inactive)
SK-MEL-5
  GI50: > 100 µM (inactive)
SK-MEL-28
  GI50: > 100 µM (inactive)
HCT-116
  GI50: > 100 µM (inactive)
NCI-H23
  GI50: > 100 µM (inactive)
OVCAR-8
  GI50: 48.2 µM (inactive)
SW-620
  GI50: > 100 µM (inactive)
SF-295
  GI50: > 100 µM (inactive)

## CC[C@](C)(O)C(=O)O[C@H]1C(=O)O[C@@H]2C[C@H]3C(C)=C[C@H](O)[C@@H](O)[C@]3(C)[C@H]3[C@@]4(O)OC[C@]32[C@@H]1[C@@H](C)[C@H]4O
SK-MEL-2
  GI50: 37.7 µM (inactive)
OVCAR-5
  GI50: 104 µM (inactive)
SF-268
  GI50: 52.5 µM (inactive)
OVCAR-3
  GI50: 13.5 µM (inactive)
NCI-H522
  GI50: 3.58 µM (inactive)
SK-OV-3
  GI50: 71.9 µM (inactive)
Malme-3M
  GI50: 8.93 µM (inactive)
MCF7
  GI50: 11.6 µM (inactive)
UO-31
  GI50: 96.2 µM (inactive)
SK-MEL-5
  GI50: 9.48 µM (inactive)
SK-MEL-28
  GI50: 17.3 µM (inactive)
HCT-116
  GI50: 14.7 µM (inactive)
NCI-H23
  GI50: 5.78 µM (inactive)
OVCAR-8
  GI50: 34 µM (inactive)
SW-620
  GI50: 12.4 µM (inactive)
SF-295
  GI50: 46.5 µM (inactive)

## CSc1ccc2c(cc1=O)C(NC(=O)c1ccc(OC(C)=O)cc1)CCc1cc(O)c(O)c(O)c1-2 (stereo not drawn)
SK-MEL-2
  GI50: 16.2 µM (inactive)
OVCAR-5
  GI50: 25.1 µM (inactive)
SF-268
  GI50: 42.1 µM (inactive)
OVCAR-3
  GI50: 20.8 µM (inactive)
NCI-H522
  GI50: 12.8 µM (inactive)
SK-OV-3
  GI50: 38.4 µM (inactive)
TK-10
  GI50: 91.2 µM (inactive)
Malme-3M
  GI50: 48.9 µM (inactive)
UO-31
  GI50: 35.6 µM (inactive)
SK-MEL-5
  GI50: 16 µM (inactive)
SK-MEL-28
  GI50: 61.7 µM (inactive)
HCT-116
  GI50: 17.3 µM (inactive)
NCI-H23
  GI50: 25.3 µM (inactive)
OVCAR-8
  GI50: 25.1 µM (inactive)
SR
  GI50: 7.94 µM (inactive)
SW-620
  GI50: 13.1 µM (inactive)
SF-295
  GI50: 19.1 µM (inactive)

## C=CC1=CC(C)C[C@]1(O)C(=O)OC (stereo partly drawn)
SK-MEL-2
  GI50: < 0.01 µM (active)
OVCAR-5
  GI50: < 0.01 µM (active)
SF-268
  GI50: < 0.01 µM (active)
OVCAR-3
  GI50: < 0.01 µM (active)
NCI-H522
  GI50: > 100 µM (inactive)
SK-OV-3
  GI50: > 100 µM (inactive)
TK-10
  GI50: < 0.01 µM (active)
Malme-3M
  GI50: < 0.01 µM (active)
UO-31
  GI50: < 0.01 µM (active)
SK-MEL-5
  GI50: > 100 µM (inactive)
SK-MEL-28
  GI50: < 0.01 µM (active)
HCT-116
  GI50: < 0.01 µM (active)
NCI-H23
  GI50: < 0.01 µM (active)
OVCAR-8
  GI50: < 0.01 µM (active)
SR
  GI50: 2.75 µM (inactive)
SW-620
  GI50: 38.5 µM (inactive)
SF-295
  GI50: < 0.01 µM (active)

## Cc1cc(N)c2cc(NC(=O)CCCCCCCCC(=O)Nc3ccc4nc(C)cc(N)c4c3)ccc2n1
SK-MEL-2
  GI50: > 100 µM (inactive)
OVCAR-5
  GI50: > 56 µM (inactive)
SF-268
  GI50: 29.6 µM (inactive)
OVCAR-3
  GI50: 98.6 µM (inactive)
NCI-H522
  GI50: 1.98 µM (inactive)
SK-OV-3
  GI50: > 68.4 µM (inactive)
TK-10
  GI50: 45.8 µM (inactive)
Malme-3M
  GI50: 25.4 µM (inactive)
UO-31
  GI50: > 100 µM (inactive)
SK-MEL-5
  GI50: 5.58 µM (inactive)
SK-MEL-28
  GI50: 42.8 µM (inactive)
HCT-116
  GI50: 5.07 µM (inactive)
NCI-H23
  GI50: 15.2 µM (inactive)
OVCAR-8
  GI50: > 100 µM (inactive)
SR
  GI50: 11.7 µM (inactive)
SW-620
  GI50: 27.9 µM (inactive)
SF-295
  GI50: 43.2 µM (inactive)

## C[C@@H](NC(=O)OC1C=CC2(CC1)C(=O)N(C)c1ccccc12)c1cccc2ccccc12 (stereo partly drawn)
SK-MEL-2
  GI50: > 25 µM (inactive)
OVCAR-5
  GI50: > 25 µM (inactive)
SF-268
  GI50: 7.36 µM (inactive)
OVCAR-3
  GI50: > 25 µM (inactive)
NCI-H522
  GI50: 5.24 µM (inactive)
SK-OV-3
  GI50: > 25 µM (inactive)
TK-10
  GI50: > 25 µM (inactive)
MCF7
  GI50: 7.59 µM (inactive)
UO-31
  GI50: > 25 µM (inactive)
MDA-MB-435
  GI50: 9.57 µM (inactive)
SK-MEL-5
  GI50: 5.32 µM (inactive)
SK-MEL-28
  GI50: > 25 µM (inactive)
HCT-116
  GI50: 4.56 µM (inactive)
NCI-H23
  GI50: 12.2 µM (inactive)
OVCAR-8
  GI50: > 25 µM (inactive)
SR
  GI50: 10.2 µM (inactive)
SW-620
  GI50: > 25 µM (inactive)
SF-295
  GI50: 12.7 µM (inactive)

## Nc1ccc2c(c1)C1Oc3ccccc3CC1CO2 (stereo not drawn)
SK-MEL-2
  GI50: > 100 µM (inactive)
OVCAR-5
  GI50: > 100 µM (inactive)
SF-268
  GI50: > 100 µM (inactive)
OVCAR-3
  GI50: > 100 µM (inactive)
NCI-H522
  GI50: > 100 µM (inactive)
SK-OV-3
  GI50: > 100 µM (inactive)
TK-10
  GI50: > 100 µM (inactive)
Malme-3M
  GI50: > 100 µM (inactive)
MCF7
  GI50: > 100 µM (inactive)
UO-31
  GI50: > 100 µM (inactive)
MDA-MB-435
  GI50: > 100 µM (inactive)
SK-MEL-5
  GI50: > 100 µM (inactive)
HCT-116
  GI50: > 100 µM (inactive)
NCI-H23
  GI50: > 100 µM (inactive)
OVCAR-8
  GI50: > 100 µM (inactive)
SR
  GI50: > 100 µM (inactive)
SW-620
  GI50: > 100 µM (inactive)
SF-295
  GI50: > 100 µM (inactive)
